Measured values from patent publication US10987359B2, “Oxadiazepinone derivatives and methods of treating hepatitis B infections” (priority 2016, dated 2021).

Test system: HBV
Assay: HBV replication inhibition assay (BDNA assay) in HepG2.2.15 cells
Assay type: cell-based
Details: HBV replication assay (BDNA assay), HepG2.2.15 cells; read-out: DNA EC50
Procedure, shortened: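 HepG2.2.15 cells with stably integrated HBV were treated with serially diluted compounds at 0.5% DMSO for 6 days, with medium and compound refreshed at day 3. Encapsidated HBV DNA from DNase-treated supernatant was quantified by branched DNA assay. EC50 came from % inhibition versus DMSO, fitted non-linearly.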

Compound | EC50 [nM]
CC(=O)NCC1Cn2nc3c(c2C(=O)N(C)O1)CN(C(=O)Nc1ccc(F)c(C#N)c1)[C@H](C)C3 (single isomer, unassigned) [Compound 176_D1, (4S*,9R)-4-(acetamidomethyl)-N-(3-cyano-4-fluorophenyl)-2,9-dimethyl-1-oxo-1,4,5,8,9,11-hexahydropyrido[4′,3′:3,4]pyrazolo[5,1-d][1,2,5]oxadiazepine-10(2H)-carboxamide] | 100 to 500
CC(=O)NCC1Cn2nc3c(c2C(=O)N(C)O1)CN(C(=O)Nc1ccc(F)c(C#N)c1)[C@H](C)C3 (single isomer, unassigned) [Compound 176_D2, (4R*,9R)-4-(acetamidomethyl)-N-(3-cyano-4-fluorophenyl)-2,9-dimethyl-1-oxo-1,4,5,8,9,11-hexahydropyrido[4′,3′:3,4]pyrazolo[5,1-d][1,2,5]oxadiazepine-10(2H)-carboxamide] | 1 to 100
CC(=O)NCC1Cn2nc3c(c2C(=O)N(C)O1)CN(C(=O)Nc1ccc(F)c(C(F)(F)F)c1)[C@H](C)C3 (single isomer, unassigned) [Compound 177_D2, (4R*,9R)-4-(acetamidomethyl)-N-(4-fluoro-3-(trifluoromethyl)phenyl)-2,9-dimethyl-1-oxo-1,4,5,8,9,11-hexahydropyrido[4′,3′:3,4]pyrazolo[5,1-d][1,2,5]oxadiazepine-10(2H)-carboxamide] | 1 to 100
C[C@@H]1Cc2nn3c(c2CN1C(=O)Nc1ccc(F)c(C#N)c1)C(=O)N(C)OC(CNS(C)(=O)=O)C3 (single isomer, unassigned) [Compound 178_D1, (4S*,9R)—N-(3-cyano-4-fluorophenyl)-2,9-dimethyl-4-(methylsulfonamidomethyl)-1-oxo-1,4,5,8,9,11-hexahydropyrido[4′,3′:3,4]pyrazolo[5,1-d][1,2,5]oxadiazepine-10(2H)-carboxamide] | 100 to 500
C[C@@H]1Cc2nn3c(c2CN1C(=O)Nc1ccc(F)c(C#N)c1)C(=O)N(C)OC(CNS(C)(=O)=O)C3 (single isomer, unassigned) [Compound 178_D2, (4R*,9R)—N-(3-cyano-4-fluorophenyl)-2,9-dimethyl-4-(methylsulfonamidomethyl)-1-oxo-1,4,5,8,9,11-hexahydropyrido[4′,3′:3,4]pyrazolo[5,1-d][1,2,5]oxadiazepine-10(2H)-carboxamide] | 1 to 100
C[C@@H]1Cc2nn3c(c2CN1C(=O)Nc1ccc(F)c(C(F)(F)F)c1)C(=O)N(C)OC(CNS(C)(=O)=O)C3 (single isomer, unassigned) [Compound 179_D2, (4R*,9R)—N-(4-fluoro-3-(trifluoromethyl)phenyl)-2,9-dimethyl-4-(methylsulfonamidomethyl)-1-oxo-1,4,5,8,9,11-hexahydropyrido[4′,3′:3,4]pyrazolo[5,1-d][1,2,5]oxadiazepine-10(2H)-carboxamide] | 1 to 100
COC(=O)NCC1Cn2nc3c(c2C(=O)N(C)O1)CN(C(=O)Nc1ccc(F)c(C#N)c1)[C@H](C)C3 (single isomer, unassigned) [Compound 180_D2, methyl (((4R*,9R)-10-((3-cyano-4-fluorophenyl)carbamoyl)-2,9-dimethyl-1-oxo-1,2,4,5,8,9,10,11-octahydropyrido[4′,3′:3,4]pyrazolo[5,1-d][1,2,5]oxadiazepin-4-yl)methyl)carbamate] | 1 to 100
COC(=O)NCC1Cn2nc3c(c2C(=O)N(C)O1)CN(C(=O)Nc1ccc(F)c(C(F)(F)F)c1)[C@H](C)C3 (single isomer, unassigned) [Compound 181_D2, methyl (((4R*,9R)-10-((4-fluoro-3-(trifluoromethyl)phenyl)carbamoyl)-2,9-dimethyl-1-oxo-1,2,4,5,8,9,10,11-octahydropyrido[4′,3′:3,4]pyrazolo[5,1-d][1,2,5]oxadiazepin-4-yl)methyl)carbamate] | 1 to 100
C[C@@H]1Cc2nn3c(c2CN1C(=O)Nc1ccc(F)c(C(F)(F)F)c1)C(=O)N(C)OC(CNCC(F)F)C3 (single isomer, unassigned) [Compound 182_D2, (4R*,9R)-4-(((2,2-difluoroethyl)amino)methyl)-N-(4-fluoro-3-(trifluoromethyl)phenyl)-2,9-dimethyl-1-oxo-1,4,5,8,9,11-hexahydropyrido[4′,3′:3,4]pyrazolo[5,1-d][1,2,5]oxadiazepine-10(2H)-carboxamide] | 1 to 100

Same assay, conditions: Hepatitis B virus, HepG2.2.15, HBV replication assay (BDNA assay), HepG2.2.15 cells; read-out: DNA EC50

Compound | EC50 [nM]
CC(=O)NCC1Cn2nc3c(c2C(=O)N(C)O1)CN(C(=O)Nc1ccc(F)c(C(F)(F)F)c1F)CC3 (single isomer, unassigned) [Compound 172_E1, (S*)-4-(acetamidomethyl)-N-(2,4-difluoro-3-(trifluoromethyl)phenyl)-2-methyl-1-oxo-1,4,5,8,9,11-hexahydropyrido[4′,3′:3,4]pyrazolo[5,1-d][1,2,5]oxadiazepine-10(2H)-carboxamide] | 1 to 100
CC(=O)NCC1Cn2nc3c(c2C(=O)N(C)O1)CN(C(=O)Nc1cc(Cl)c(F)cc1F)CC3 (single isomer, unassigned) [Compound 173_E1, (S*)-4-(acetamidomethyl)-N-(5-chloro-2,4-difluorophenyl)-2-methyl-1-oxo-1,4,5,8,9,11-hexahydropyrido[4′,3′:3,4]pyrazolo[5,1-d][1,2,5]oxadiazepine-10(2H)-carboxamide] | 1 to 100
CC(=O)NCC1Cn2nc3c(c2C(=O)N(C)O1)CN(C(=O)Nc1cc(Br)c(F)cc1F)CC3 (single isomer, unassigned) [Compound 174_E1, (S*)-4-(acetamidomethyl)-N-(5-bromo-2,4-difluorophenyl)-2-methyl-1-oxo-1,4,5,8,9,11-hexahydropyrido[4′,3′:3,4]pyrazolo[5,1-d][1,2,5]oxadiazepine-10(2H)-carboxamide] | 1 to 100
CC(=O)NCC1Cn2nc3c(c2C(=O)N(C)O1)CN(C(=O)Nc1ccc(F)c(C(F)(F)F)c1)CC3 (single isomer, unassigned) [Compound 175_E1, (S*)-4-(acetamidomethyl)-N-(4-fluoro-3-(trifluoromethyl)phenyl)-2-methyl-1-oxo-1,4,5,8,9,11-hexahydropyrido[4′,3′:3,4]pyrazolo[5,1-d][1,2,5]oxadiazepine-10(2H)-carboxamide] | 1 to 100
CC(=O)NCC1Cn2nc3c(c2C(=O)N(C)O1)CN(C(=O)Nc1ccc(F)c(C(F)(F)F)c1)[C@H](C)C3 (single isomer, unassigned) [Compound 177_D1, (4S*,9R)-4-(acetamidomethyl)-N-(4-fluoro-3-(trifluoromethyl)phenyl)-2,9-dimethyl-1-oxo-1,4,5,8,9,11-hexahydropyrido[4′,3′:3,4]pyrazolo[5,1-d][1,2,5]oxadiazepine-10(2H)-carboxamide] | 1 to 100
C[C@@H]1Cc2nn3c(c2CN1C(=O)Nc1ccc(F)c(C(F)(F)F)c1)C(=O)N(C)OC(CNS(C)(=O)=O)C3 (single isomer, unassigned) [Compound 179_D1, (4 S*,9R)—N-(4-fluoro-3-(trifluoromethyl)phenyl)-2,9-dimethyl-4-(methylsulfonamidomethyl)-1-oxo-1,4,5,8,9,11-hexahydropyrido[4′,3′:3,4]pyrazolo[5,1-d][1,2,5]oxadiazepine-10(2H)-carboxamide] | 1 to 100
COC(=O)NCC1Cn2nc3c(c2C(=O)N(C)O1)CN(C(=O)Nc1ccc(F)c(C#N)c1)[C@H](C)C3 (single isomer, unassigned) [Compound 180_D1, methyl (((4S*,9R)-10-((3-cyano-4-fluorophenyl)carbamoyl)-2,9-dimethyl-1-oxo-1,2,4,5,8,9,10,11-octahydropyrido[4′,3′:3,4]pyrazolo[5,1-d][1,2,5]oxadiazepin-4-yl)methyl)carbamate] | 1 to 100
COC(=O)NCC1Cn2nc3c(c2C(=O)N(C)O1)CN(C(=O)Nc1ccc(F)c(C(F)(F)F)c1)[C@H](C)C3 (single isomer, unassigned) [Compound 181_D1, methyl(((4S*,9R)-10-((4-fluoro-3-(trifluoromethyl)phenyl)carbamoyl)-2,9-dimethyl-1-oxo-1,2,4,5,8,9,10,11-octahydropyrido[4′,3′:3,4]pyrazolo[5,1-d][1,2,5]oxadiazepin-4-yl)methyl)carbamate] | 1 to 100
C[C@@H]1Cc2nn3c(c2CN1C(=O)Nc1ccc(F)c(C(F)(F)F)c1)C(=O)N(C)OC(CNCC(F)F)C3 (single isomer, unassigned) [Compound 182_D1, (4S*,9R)-4-(((2,2-difluoroethyl)amino)methyl)-N-(4-fluoro-3-(trifluoromethyl)phenyl)-2,9-dimethyl-1-oxo-1,4,5,8,9,11-hexahydropyrido[4′,3′:3,4]pyrazolo[5,1-d][1,2,5]oxadiazepine-10(2H)-carboxamide] | 1 to 100
CN1OC(CNCC(F)F)Cn2nc3c(c2C1=O)CN(C(=O)Nc1ccc(F)c(C#N)c1F)CC3 (single isomer, unassigned) [Compound 186_E1, (S*)—N-(3-cyano-2,4-difluorophenyl)-4-(((2,2-difluoroethyl)amino)methyl)-2-methyl-1-oxo-1,4,5,8,9,11-hexahydropyrido[4′,3′:3,4]pyrazolo[5,1-d][1,2,5]oxadiazepine-10(2H)-carboxamide] | 1 to 100
CN1OC(CNCC(F)F)Cn2nc3c(c2C1=O)CN(C(=O)Nc1ccc(F)c(C#N)c1)CC3 (single isomer, unassigned) [Compound 187_E1, (S*)—N-(3-cyano-4-fluorophenyl)-4-(((2,2-difluoroethyl)amino)methyl)-2-methyl-1-oxo-1,4,5,8,9,11-hexahydropyrido[4′,3′:3,4]pyrazolo[5,1-d][1,2,5]oxadiazepine-10(2H)-carboxamide] | 1 to 100
CN1OC(CNCC(F)F)Cn2nc3c(c2C1=O)CN(C(=O)Nc1ccc(F)c(Cl)c1F)CC3 (single isomer, unassigned) [Compound 188_E1, (S*)—N-(3-chloro-2,4-difluorophenyl)-4-(((2,2-difluoroethyl)amino)methyl)-2-methyl-1-oxo-1,4,5,8,9,11-hexahydropyrido[4′,3′:3,4]pyrazolo[5,1-d][1,2,5]oxadiazepine-10(2H)-carboxamide] | 1 to 100
